According to patent publication US12686690B2, “Macrocyclic urea orexin receptor agonists” (Merck Sharp & Dohme LLC, priority 2020, dated 2026):

Molecular target: T1, hOX2R (Homo sapiens, UniProt O43614)
T1 construct: expressed in transfected cells; host or cells: CHO cells (G418 selection)
T1 sequence (O43614 1-444): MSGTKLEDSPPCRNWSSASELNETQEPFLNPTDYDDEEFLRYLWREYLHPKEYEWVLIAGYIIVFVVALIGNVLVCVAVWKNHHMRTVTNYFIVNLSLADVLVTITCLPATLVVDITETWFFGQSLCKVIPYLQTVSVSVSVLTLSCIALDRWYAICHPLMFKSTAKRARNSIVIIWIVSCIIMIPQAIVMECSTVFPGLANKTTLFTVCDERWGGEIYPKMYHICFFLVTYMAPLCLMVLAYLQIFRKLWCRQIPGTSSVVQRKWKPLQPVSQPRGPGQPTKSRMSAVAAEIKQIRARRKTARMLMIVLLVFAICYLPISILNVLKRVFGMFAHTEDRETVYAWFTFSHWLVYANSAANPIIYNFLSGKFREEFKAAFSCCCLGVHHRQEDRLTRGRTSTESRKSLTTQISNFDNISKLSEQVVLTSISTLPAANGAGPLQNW
Experiment: hOX2R IPone assay (orexin receptor agonism)
Type: cell-based
Conditions: IPone readout; for hOX2R_Ipone max %act: maximal activation; for EC50: orexin receptor agonist, read-out: hOX2R_IPone EC50

| SMILES | hOX2R_Ipone max %act | EC50 |
| --- | --- | --- |
| CCN1C(=O)N[C@@H](CCC(F)(F)F)CCCCCOc2cc(nc3ccnn23)-c2cc(ncc2OC)[C@H]1C [Example 100, (11R,15R)-12-ethyl-7-methoxy-11-methyl-15-(3,3,3-trifluoropropyl)-11,12,15,16,17,18,19, 20-octahydro-5,22: 10,6-di(metheno)pyrazolo [1,5-c][1,3,5,10,13,15] oxapentaazacycloheni-cosin-13(14H)-one] | 102.2% | 10 nM |
| CCN1C(=O)N[C@@H](CC(F)(F)F)CCCCCOc2nc(nn3ccnc23)-c2ccnc(c2)[C@H]1C [Example 101, (12R,16R)-13-ethyl-12-methyl-16-(2,2,2-trifluoroethyl)-12,13,16,17,18,19,20, 21-octahydro-6,23-(azeno)-11,7-(metheno)imidazo[2,1-c][1,4,5,10,13,15] oxapentaazacycloheni-cosin-14(15H)-one] | 97.69% | 248 nM |
| CCN1C(=O)N[C@@H](CCC(F)(F)F)CCCCCOc2nc(nn3ccnc23)-c2ccnc(c2)[C@H]1C [Example 102, (12R,16R)-13-ethyl-12-methyl-16-(3,3,3-trifluoropropyl)-12,13,16,17,18,19,20, 21-octahydro-6,23-(azeno)-11,7-(metheno)imidazo[2,1-c][1,4,5,10,13,15] oxapentaazacycloheni-cosin-14(15H)-one] | 101.4% | 14.9 nM |
| CCN1C(=O)N[C@@H](CC(F)(F)F)CCCCCOc2nc(cn3ccnc23)-c2ccnc(c2)[C@H]1C [Example 103, (12R,16R)-13-ethyl-12-methyl-16-(2,2,2-trifluoroethyl)-12,13,16,17,18,19,20, 21-octahydro-6,23-(azeno)-11,7-(metheno)imidazo[2,1-c][1,4,10,13,15] oxatetraazacycloheni-cosin-14(15H)-one] | 100.8% | 13.1 nM |
| CCN1C(=O)N[C@@H](CCC(F)(F)F)CCCCCCc2cc(cn3ccnc23)-c2nc(ccc2OC)[C@H]1C [Example 106, (12R,16R)-13-ethyl-8-methoxy-12-methyl-16-(3,3,3-trifluoropropyl)-12,13,15,16,17,18,19, 20,21,22-decahydro-14H-11,7-(azeno)-6,23-(metheno) imidazo[1,2-1][1,3,12] triazacyclohenicosin-14-one] | 99.7% | 1.7 nM |
| CCN1C(=O)N[C@@H](CCC(F)(F)F)CCCCCOc2nc(cn3ccnc23)-c2cc(C)nc(c2)[C@@H]1C [Example 107A, (12S,16R)-13-ethyl-9,12-dimethyl-16-(3,3,3-trifluoropropyl)-12,13,16,17,18,19,20, 21-octahydro-6,23-(azeno)-11,7-(metheno)imidazo[2,1-c][1,4,10,13,15] oxatetraazacycloheni-cosin-14(15H)-one] | 92.7% | 166 nM |
| CCN1C(=O)N[C@@H](CCC(F)(F)F)CCCCCOc2nc(cn3ccnc23)-c2cc(C)nc(c2)[C@H]1C [Example 107B, (12R,16R)-13-ethyl-9,12-dimethyl-16-(3,3,3-trifluoropropyl)-12,13,16,17,18,19,20, 21-octahydro-6,23-(azeno)-11,7-(metheno)imidazo[2,1-c][1,4,10,13,15] oxatetraazacycloheni-cosin-14(15H)-one] | 100.1% | 2.4 nM |
| CCN1C(=O)N[C@@H](CCC(F)(F)F)CCCCCOc2nc(cn3ccnc23)C2=CN=C(O2)C1C (stereo partly drawn) [Example 108, (15R)-12-ethyl-11-methyl-15-(3,3,3-trifluoropropyl)-11,12,15,16,17,18,19, 20-octahydro-6,22-(azeno)-7,10-epoxyimidazo[2,1-c][1,4,9,12,14]oxatet-raazacycloicosin-13(14H)-one] | 100.6% | 14.9 nM |
| CCN1C(=O)N[C@@H](CCC(F)(F)F)CCCCCCOc2nc(cn3ccnc23)-c2cc(ncc2OC)[C@H]1C [Example 109, (3R,7R,E)-4-ethyl-25-methoxy-3-methyl-7-(3,3,3-trifluoropropyl)-14-oxa-4,6-diaza-1(6,8)-imidazo[1,2-a]pyrazina-2(4,2)-pyridinacyclotetra-decaphan-5-one] | 102.4% | 1.5 nM |
| CCN1C(=O)N[C@@H](CCC(F)(F)F)CCCCCOc2nc(cn3ccnc23)-c2ccnc(c2)[C@H]1C [Example 110, (3R,7R,E)-4-ethyl-3-methyl-7-(3,3,3-trifluoropropyl)-13-oxa-4,6-diaza-1(6,8)-imidazo[1,2-a]pyrazina-2(4,2)-pyridinacyclotridecaphan-5-one] | 100.2% | 1.3 nM |
| CCN1C(=O)N[C@@H](CCC(F)(F)F)CCCCCOc2nc(cn3ccnc23)-c2cc(ncc2OC)[C@H]1C [Example 111, (3R,7R,E)-4-ethyl-25-methoxy-3-methyl-7-(3,3,3-trifluoropropyl)-13-oxa-4,6-diaza-1(6,8)-imidazo[1,2-a]pyrazina-2(4,2)-pyridinacyclotridecaphan-5-one] | 100.7% | 1.4 nM |
| CCN1C(=O)N[C@@H](CCC(F)(F)F)CCCCCOc2nc(cn3ccnc23)-c2cc(ncn2)[C@H]1C [Example 112A, (12R,16R)-13-ethyl-12-methyl-16-(3,3,3-trifluoropropyl)-12,13,16,17,18,19,20,21-octahydro-6,23-(azeno)-11,7-(metheno)imidazo[2,1-c][1,4,8,10,13,15]oxapentaazacyclohenicosin-14(15H)-one] | 101.2% | 6.8 nM |
| CCN1C(=O)N[C@@H](CCC(F)(F)F)CCCCCOc2nc(cn3ccnc23)-c2cc(ncn2)C1C (stereo partly drawn) [Example 112B, (16R)-13-ethyl-12-methyl-16-(3,3,3-trifluoropropyl)-12,13,16,17,18,19,20,21-octahydro-6,23-(azeno)-11,7-(metheno)imidazo[2,1-c][1,4,8,10,13,15]oxapentaazacyclohenicosin-14(15H)-one] | 101.8% | 9.3 nM |
| CCN1C(=O)N[C@@H](CCC(F)(F)F)CCCCCOc2nc(cn3ccnc23)-c2cc(ccn2)[C@@H]1C [Example 113A, (12S,16R)-13-ethyl-12-methyl-16-(3,3,3-trifluoropropyl)-12,13,16,17,18,19,20,21-octahydro-6,23-(azeno)-11,7-(metheno)imidazo[2,1-c][1,4,8,13,15]oxatetraazacyclohenicosin-14(15H)-one] | 98.1% | 105 nM |
| CCN1C(=O)N[C@@H](CCC(F)(F)F)CCCCCOc2nc(cn3ccnc23)-c2cc(ccn2)[C@H]1C [Example 113B, (12R,16R)-13-ethyl-12-methyl-16-(3,3,3-trifluoropropyl)-12,13,16,17,18,19,20,21-octahydro-6,23-(azeno)-11,7-(metheno)imidazo[2,1-c][1,4,8,13,15]oxatetraazacyclohenicosin-14(15H)-one] | 100.9% | 3.3 nM |
| CCN1C(=O)N[C@@H](CC(F)(F)F)CCCCCOc2nc(cn3ccnc23)-c2cc(ncc2OC)[C@H]1C [Example 114, (12R,16R)-13-ethyl-8-methoxy-12-methyl-16-(2,2,2-trifluoroethyl)-12,13,16,17,18,19,20,21-octahydro-6,23-(azeno)-11,7-(metheno)imidazo[2,1-c][1,4,10,13,15]oxatetraazacyclohenicosin-14(15H)-one] | 100.9% | 0.7 nM |
| CCN1C(=O)N[C@H](C(F)(F)F)CCCCCOc2nc(cn3ccnc23)-c2cc(ncc2OC)[C@H]1C [Example 115, (12R,16S)-13-ethyl-8-methoxy-12-methyl-16-(trifluoromethyl)-12,13,16,17,18,19,20,21-octahydro-6,23-(azeno)-11,7-(metheno)imidazo[2,1-c][1,4,10,13,15]oxatetraazacyclohenicosin-14(15H)-one] | 97.2% | 868 nM |
| CCN1C(=O)N[C@@H](CCC(F)(F)F)CCCCCOc2nc(cn3ccnc23)-c2cc(nnc2OC)[C@H]1C [Example 116, (12R,16R)-13-ethyl-8-methoxy-12-methyl-16-(3,3,3-trifluoropropyl)-12,13,16,17,18,19,20,21-octahydro-6,23-(azeno)-11,7-(metheno)imidazo[2,1-c][1,4,9,10,13,15]oxapentaazacyclohenicosin-14(15H)-one] | 99.7% | 1.6 nM |
| CCN1C(=O)N[C@@H](CCC(F)(F)F)CCCCCOc2nc(cn3ccnc23)-c2nc(ncc2OC)[C@@H]1C [Example 117A, (12S,16R)-13-ethyl-8-methoxy-12-methyl-16-(3,3,3-trifluoropropyl)-12,13,16,17,18,19,20,21-octahydro-6,23:11,7-di(azeno)imidazo[2,1-c][1,4,10,13,15]oxatetraazacyclohenicosin-14(15H)-one] | 101.7% | 26 nM |
| CCN1C(=O)N[C@@H](CCC(F)(F)F)CCCCCOc2nc(cn3ccnc23)-c2nc(ncc2OC)[C@H]1C [Example 117B, (12R,16R)-13-ethyl-8-methoxy-12-methyl-16-(3,3,3-trifluoropropyl)-12,13,16,17,18,19,20,21-octahydro-6,23:11,7-di(azeno)imidazo[2,1-c][1,4,10,13,15]oxatetraazacyclohenicosin-14(15H)-one] | 101.9% | 1.5 nM |
